Results on 13 compounds are retold here after patent publication US6136781A, “LH-RH receptor antagonists” (Takeda Chemical Industries, Ltd., priority 1995, dated 2000).

Where two headings read alike, the source gives them in different places. Square brackets hold non-standard residues; d marks the D form. Peptide text beside a SMILES is read from it. * marks the point of attachment. Naphthalene1sulfonyl = O=S(=O)(c1cccc2ccccc12)*; Gly(2-thienyl) = N[C@H](C(=O)O)c1cccs1; Hexanoyl(6-Ph) = O=C(CCCCCc1ccccc1)*; Mtr = COc1cc(C)c(S(=O)(=O)*)c(C)c1C; 1Naphthoyl = O=C(c1cccc2ccccc12)*; NHPhenethyl = c1ccc(CCN*)cc1; Phg = N[C@H](C(=O)O)c1ccccc1; Tos = Cc1ccc(S(=O)(=O)*)cc1; Bz = O=C(c1ccccc1)*

In data set [1] the target is T1, Human LH-RH Receptor (Homo sapiens, UniProt P30968).
T1 construct: expressed in transfected cells; host or cells: CHO cells (Chinese hamster ovary), membrane fraction
T1 sequence (P30968 1-328): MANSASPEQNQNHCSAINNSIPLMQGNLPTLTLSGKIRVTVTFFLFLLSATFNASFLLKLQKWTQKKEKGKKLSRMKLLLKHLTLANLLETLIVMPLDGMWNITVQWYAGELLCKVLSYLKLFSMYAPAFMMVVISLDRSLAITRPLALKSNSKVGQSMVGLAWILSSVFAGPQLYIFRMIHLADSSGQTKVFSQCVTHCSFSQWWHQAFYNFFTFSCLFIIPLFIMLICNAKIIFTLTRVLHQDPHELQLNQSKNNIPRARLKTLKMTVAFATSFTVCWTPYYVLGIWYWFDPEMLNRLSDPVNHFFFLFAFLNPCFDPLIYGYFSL
Put plainly: Inhibition of bonding of 125I-leuprorelin to human LH-RH receptor (receptor assay). It counts as binding. The conditions noted are these: human LH-RH receptor-expressing CHO cell membrane fraction, 25° C. for 60 minutes, Hill plotting. On the procedure: Human LH-RH receptor-expressing CHO cells (10^9 cells) were floated in a phosphate buffer saline containing 5 mM EDTA (PBS-EDTA) and subjected to centrifugation at 100×g for 5 minutes. 10 ml of a cell homogenate buffer (10 mM NaHCO3, 5 mM EDTA, pH 7.5) was added to the resulting cell pellets, and the resulting mixture was then homogenized in a polytron homogenizer. This was thereafter centrifuged at 400×g for 15 minutes, and the resulting supernatant was collected in an ultra-centrifuger and again centrifuged at 100,000×g for 1 hour to obtain a precipitate of the cell membrane fraction. This precipitate was suspended in 2 ml of an assay buffer and centrifuged at 100,000×g for 1 hour. The cell membrane fraction thus collected as a precipitate was again suspended in 20 ml of an assay buffer, put into plural vials and stored at -80° C. These were individually thawed before use.
Determination of Percentage of Inhibition of Bonding of ^125 I-Leuprorelin to Human LH-RH Receptor
The human LH-RH receptor-expressing CHO cell membrane fraction as prepared in Reference Example 2 was diluted with an assay buffer to have a concentration of 200 μg/ml and put into plural tubes at 188 μl/tube. Where the human LH-RH receptor-expressing CHO cell membrane fraction was used, 2 μl of a solution of the test compound (2 mM) as dissolved in 60%-DMSO and 10 μl of ^125 I-leuprorelin (38 nM) were added to the dilution of the fraction. In order to measure the maximum amount of the ^125 I-leuprorelin as bonded to the receptor, a reaction system comprising 2 μl of 60%-DMSO and 10 μl of ^125 -leuprorelin (38 nM) was prepared. In order to measure the amount of ^125 I-leuprorelinas non-specifically bonded to the receptor, a reaction system comprising 2 μl of leuprorelin (100 μM) as dissolved in 60%-DMSO and 10 μl of ^125 I-leuprorelin (38 nM) was prepared.
Each system of the present invention comprising the human LH-RH receptor-expressing CHO cell membrane fraction was reacted at 25° C. for 60 minutes. After the reaction, the reaction mixture was filtered under suction through a polyethyleneimine-treated Wattman glass filter (GF-F). After the filtration, the radioactivity of ^125 I-leuprorelin in the residue remained on the filter paper was measured using a g-counter.
From the data measured, a value of [(TB-SB)/(TB-NSB)]×100 (where SB is the radioactivity of the test system to which the test compound had been added; TB is the radioactivity of the maximum bonding system; and NSB is the radioactivity of the non-specific bonding system) was calculated, which indicates the bonding-inhibition percentage (%) of the compound tested. […] The results obtained are shown in [Table 1].

For data set [2] the following is noted: amide bond, 15-membered ring, DMF.

As usually defined, the IC50 is the point on the concentration scale where inhibition reaches its midpoint. Higher therefore signals a need for much substance.

In data set [1], `Cc1ccc(S(=O)(=O)NC(=N)NCCC[C@H]2NC(=O)[C@H](c3ccccc3)NC(=O)[C@H](Cc3ccccc3)NC(=O)[C@@H](C)NC(=O)[C@H](Cc3ccccc3)NC2=O)cc1` [Example 53, cyclo(-Phg-D-Arg(Tos)-Phe-D-Ala-Phe-)] (cyclo(F[Phg][dR](Tos)F[dA])) yielded an IC50 of 0.1 µM. This counts as sub-micromolar. In data set [1], `CC(C)C[C@@H]1NC(=O)[C@@H](Cc2c[nH]c3ccccc23)NC(=O)[C@H](Cc2ccc(O)cc2)NC(=O)[C@@H](CCCCNS(=O)(=O)c2cccc3ccccc23)NC(=O)[C@H](CCCNC(=N)N)NC1=O` [Example 1, cyclo(-Arg-D-Lys(SO2 Nap(1))-Tyr-D-Trp-Leu-)] (cyclo(LR[dK](Naphthalene1sulfonyl)Y[dW])) showed an IC50 of 0.9 µM. On the same count and under the same terms, as for `Cc1ccc(S(=O)(=O)NC(=N)NCCC[C@H]2NC(=O)[C@H](Cc3ccccc3)NC(=O)[C@H](Cc3c[nH]c4ccccc34)NC(=O)[C@@H](C)NC(=O)[C@H](Cc3ccccc3)NC2=O)cc1` [Example 37, cyclo(-Phe-D-Arg(Tos)-Phe-D-Ala-Trp-)] (cyclo(F[dA]WF[dR](Tos))), the figure is 0.3 µM; as for `Cc1ccc(S(=O)(=O)NC(=N)NCCC[C@H]2NC(=O)[C@H](c3cccs3)NC(=O)[C@H](Cc3c[nH]c4ccccc34)NC(=O)[C@@H](C)NC(=O)[C@H](Cc3ccccc3)NC2=O)cc1` [Example 54, cyclo(-Thg(2)-D-Arg(Tos)-Phe-D-Ala-Trp-)] (cyclo(F[dA]W[Gly(2-thienyl)][dR](Tos))), 0.3 µM. With `CC(C)C[C@@H]1NC(=O)[C@@H](Cc2c[nH]c3ccccc23)NC(=O)[C@H](CCCCNC(=O)c2ccccc2)NC(=O)[C@@H](CCC(=O)NCCc2ccccc2)NC(=O)[C@H](CCCNC(=N)N)NC1=O` [Example 21, cyclo(-Arg-D-Glu(NHCH2 CH2 Ph)-Lys(COPh)-D-Trp-Leu-)] (cyclo(K(Bz)[dW]LR[dE](NHPhenethyl))), the concentration for half-maximal inhibition (IC50) in data set [1] was found to be 0.4 µM. Still for that read-out and setting: as for `COc1cc(C)c(S(=O)(=O)NC(=N)NCCC[C@H]2NC(=O)[C@H](Cc3ccccc3)NC(=O)[C@H](Cc3c[nH]c4ccccc34)NC(=O)[C@@H](C)NC(=O)[C@H](Cc3ccccc3)NC2=O)c(C)c1C` [Example 35, cyclo(-Phe-D-Arg-(Mtr)-Phe-D-Ala-Trp-)] (cyclo(F[dA]WF[dR](Mtr))), the figure is 0.4 µM. The same measure, in the same setting: as for `CC(C)C[C@@H]1NC(=O)[C@@H](Cc2c[nH]c3ccccc23)NC(=O)[C@H](CCCCNC(=O)c2cccc3ccccc23)NC(=O)[C@@H](CCC(=O)NCCc2ccccc2)NC(=O)[C@H](CCCNC(=N)N)NC1=O` [Example 31, cyclo(-Arg-D-Glu(NHCH2 CH2 Ph)-Lys(CONap(1))-D-Trp-Leu-)] (cyclo(K(1Naphthoyl)[dW]LR[dE](NHPhenethyl))), the figure is 0.2 µM; as for `Cc1ccc(S(=O)(=O)NC(=N)NCCC[C@H]2NC(=O)[C@H](c3ccccc3)NC(=O)[C@H](Cc3c[nH]c4ccccc34)NC(=O)[C@@H](C)NC(=O)[C@H](Cc3ccccc3)NC2=O)cc1` [Example 48, cyclo(-Phg-D-Arg(Tos)-Phe-D-Ala-Trp-)] (cyclo(F[dA]W[Phg][dR](Tos))), 0.07 µM. Turning to `CC(C)C[C@@H]1NC(=O)[C@@H](Cc2c[nH]c3ccccc23)NC(=O)[C@H](Cc2ccc(O)cc2)NC(=O)[C@@H](CCCCNC(=O)CCCCCc2ccccc2)NC(=O)[C@H](CCCNC(=N)N)NC1=O` [Example 20, cyclo(-Arg-D-Lys (COCH2 CH2 CH2 CH2 CH2 Ph)-Tyr-D-Trp-Leu-)] (cyclo(LR[dK](Hexanoyl(6-Ph))Y[dW])), the midpoint of inhibition in data set [1], the IC50, lay at 0.1 µM. As for “cyclo(-Arg-D-Glu(NHCH2 CH2 Ph)-Tyr-D-Trp-Phe-)”, in data set [2] (ONB active ester/DIEA, 1.08 mM, 5 steps), the ring closure, yield after HPLC is 37%.

Regarding `Cc1ccc(S(=O)(=O)NC(=N)NCCC[C@@H]2NC(=O)[C@H](Cc3ccccc3)NC(=O)[C@H](Cc3c[nH]c4ccccc34)NC(=O)[C@@H](C)NC(=O)[C@H](Cc3ccccc3)NC2=O)cc1` [cyclo(-Phe-Arg(Tos)-Phe-D-Ala-Trp-)], the ring closure, yield after HPLC in data set [2] (from H-Trp-Phe-Arg(Tos)-Phe-dAla-OH, PyBOP/DIEA, 25.0 °C, 2 steps) was found to be 71.5%. In data set [2] (ONB active ester/DIEA, 0.93 mM, 5 steps), “cyclo(-Arg-D-Glu(NHCH2 CH2 Ph)-Lys(COPh)-D-Trp-Trp-)” came in with a ring closure, yield after HPLC of 13.9%. In the case of “cyclo(-Arg-D-Glu(NHCH2 CH2 Ph)-Lys(COPh)-D-Trp-Phe-)”, in data set [2] (ONB active ester/DIEA, 1.28 mM, 5 steps), the ring closure, yield after HPLC was determined as 5.7%.
